Test results reported in PubChem BioAssay (NCI).
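In this assay, cells in 96-well plates receive the compound at five concentrations for 48 hours. Endpoints are linearly interpolated between the surrounding concentrations. The concentration for full growth arrest is given as TGI.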

Tests used:
Assay in all cases: growth of human tumour cells (NCI), 48 h
[1] = test system: CCRF-CEM leukemia
[2] = test system: OVCAR-8 ovarian
[3] = test system: A549 NSCLC
[4] = test system: PC-3 prostate
[5] = test system: KM12 colon
[6] = test system: CAKI-1 renal
[7] = test system: A498 renal
[8] = test system: MDA-MB-435
[9] = test system: NCI/ADR-RES ovarian
[10] = test system: MOLT-4 leukemia
[11] = test system: LOX IMVI melanoma
[12] = test system: DU-145 prostate
[13] = test system: T-47D breast
[14] = test system: HOP-62 NSCLC
[15] = test system: OVCAR-5 ovarian
[16] = test system: SK-MEL-2 melanoma
[17] = test system: SN12C renal
[18] = test system: SF-268 CNS
[19] = test system: SNB-75 CNS
[20] = test system: HCT-15 colon
[21] = test system: SNB-19 CNS
[22] = test system: COLO 205 colon
[23] = test system: 786-0 renal
[24] = test system: OVCAR-4 ovarian
[25] = test system: RXF 393 renal
[26] = test system: NCI-H226 lung
[27] = test system: HCT-116 colon
[28] = test system: NCI-H23 lung
[29] = test system: NCI-H460 lung
[30] = test system: HT29 colon
[31] = test system: BT-549 breast
[32] = test system: SK-MEL-5 melanoma
[33] = test system: UO-31 renal
[34] = test system: HOP-92 NSCLC
[35] = test system: M14 melanoma
[36] = test system: SK-OV-3 ovarian
[37] = test system: ACHN renal
[38] = test system: U251 CNS
[39] = test system: MCF7 breast
[40] = test system: UACC-257 melanoma
[41] = test system: SF-539 CNS
[42] = test system: UACC-62 melanoma
[43] = test system: RPMI-8226 leukemia
[44] = test system: NCI-H522 lung
[45] = test system: TK-10 renal
[46] = test system: MDA-N
[47] = test system: SW-620 colon
[48] = test system: HS 578T breast
[49] = test system: K-562 leukemia
[50] = test system: MDA-MB-231 breast
[51] = test system: HL-60(TB) leukemia
[52] = test system: HCC-2998 colon
[53] = test system: IGROV1 ovarian
[54] = test system: SF-295 CNS
[55] = test system: EKVX NSCLC
[56] = test system: SK-MEL-28 melanoma
[57] = test system: OVCAR-3 ovarian
[58] = test system: MALME-3M melanoma

Measured: TGI

Cc1cc(O)c(/C=N/c2nc(-c3ccc([N+](=O)[O-])cc3)cs2)c(=O)o1
75 µM: [51]
not listed: [56] | [57] | [58]
> 100 µM: all other assays above

COc1ccc(OC)c2c1C(=O)C(=O)C(Cl)=C2O
not listed: [17] | [55]
> 100 µM: all other assays above

C#CCOC(=O)C(N)C(C)O (centres undefined)
not listed: [20] | [21] | [24] | [29] | [41] | [52]
> 100 µM: all other assays above

COc1cc(/C=C2\N=C(c3ccccc3)N(c3nc4ccc(Sc5ccccc5)cc4[nH]3)C2=O)ccc1O
43.7 µM: [38]
32.7 µM: [22]
28.5 µM: [46]
53.3 µM: [42]
55.3 µM: [1]
28.1 µM: [32]
50 µM: [29]
61 µM: [9]
31.2 µM: [51]
97.5 µM: [17]
38.7 µM: [30]
47.1 µM: [40]
94.7 µM: [54]
47.8 µM: [43]
60.4 µM: [50]
53.7 µM: [31]
23.2 µM: [8]
75.3 µM: [56]
69.4 µM: [10]
48.3 µM: [44]
29.3 µM: [52]
44.1 µM: [58]
50.7 µM: [39]
57.9 µM: [5]
53.5 µM: [45]
77.1 µM: [7]
37.3 µM: [49]
49 µM: [23]
33.6 µM: [35]
30.6 µM: [16]
86 µM: [37]
47.3 µM: [27]
not listed: [26] | [41]
> 100 µM: all other assays above

CCOC(=O)/C=C\c1c(Cl)n(-c2ccccc2)c(=O)n(-c2ccccc2)c1=O
44.7 µM: [18]
46.5 µM: [44]
34.6 µM: [22]
40 µM: [14]
34.8 µM: [42]
42.2 µM: [13]
36.1 µM: [31] | [57]
36.9 µM: [15]
72.7 µM: [9]
32.9 µM: [25]
31.6 µM: [21]
44 µM: [58]
58.7 µM: [1]
23.4 µM: [51]
29.2 µM: [19]
36.2 µM: [53]
44.8 µM: [8]
33.2 µM: [33] | [52]
50.6 µM: [11]
46 µM: [39]
39.6 µM: [23]
34.9 µM: [12]
35.1 µM: [37]
54.9 µM: [27]
35.7 µM: [6]
38.4 µM: [30]
32.3 µM: [45]
33.3 µM: [4]
87.2 µM: [10]
35.5 µM: [40]
48.5 µM: [55]
60.1 µM: [3]
37.2 µM: [36]
61.6 µM: [47]
33.5 µM: [16]
36.3 µM: [50]
41.1 µM: [56]
36 µM: [34]
34.1 µM: [29]
41.7 µM: [28]
65.2 µM: [48]
40.2 µM: [54]
50.8 µM: [7] | [26]
33.7 µM: [35]
34.7 µM: [2]
> 100 µM: [24] | [38]
39.7 µM: [20]
35.8 µM: [5]
36.4 µM: [17]
31.8 µM: [41] | [46]
